Data published in patent US11414387B2, “Oxoacridinyl acetic acid derivatives and methods of use” (Stingthera, Inc., priority 2017, dated 2022).

Each compound was assayed against hSTING-R232 (Homo sapiens (Human), UniProt Q86WV6, H232R) (assay: STING differential scanning fluorimetry (DSF) assay, WT human STING). Settings: WT (R232) human STING aa140-379, net shift in melting temperature.
Chain of hSTING-R232 (Q86WV6 140-379 H232R): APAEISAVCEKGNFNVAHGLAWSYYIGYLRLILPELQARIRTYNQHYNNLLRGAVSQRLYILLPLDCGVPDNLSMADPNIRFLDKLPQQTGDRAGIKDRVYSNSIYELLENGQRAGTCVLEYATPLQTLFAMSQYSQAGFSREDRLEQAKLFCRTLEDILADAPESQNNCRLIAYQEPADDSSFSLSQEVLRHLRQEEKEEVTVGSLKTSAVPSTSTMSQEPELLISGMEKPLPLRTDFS

Structure (SMILES) | WT_DSF_hSWAT Tm Shift (° C.)
O=C(O)Cn1c2cc(-c3ccoc3)ccc2c(=O)c2ccc(Cl)c(Cl)c21 [Compound 183] | C (“C” = 2-7° C,)
COc1c(Cl)ccc2c(=O)c3ccc(-c4cccc(N)c4)cc3n(CC(=O)O)c12 [Compound 275] | D (“D” > 7° C.)
CSc1c(Cl)ccc2c(=O)c3ccc(C(C)C)cc3n(CC(=O)O)c12 [Compound 281] | D (“D” > 7° C.)
CSc1c(Cl)ccc2c(=O)c3ccc(C)cc3n(CC(=O)O)c12 [Compound 279] | D (“D” > 7° C.)
Cc1c(C(C)C)ccc2c(=O)c3ccc(Cl)c(Cl)c3n(CC(=O)O)c12 [Compound 193] | A (“A” < 0° C.)
CCOC(=O)Cn1c2cc(C)ccc2c(=O)c2ccc(Cl)c(OCC)c21 [Compound 321] | B (“B” = 0-2° C.)
COc1c(Cl)ccc2c(=O)c3ccc(Nc4ccccc4OC(F)(F)F)cc3n(CC(=O)O)c12 [Compound 286] | D (“D” > 7° C.)
C#CCOc1c(Cl)ccc2c(=O)c3ccccc3n(CC(=O)O)c12 [Compound 272] | B (“B” = 0-2° C.)
CCOc1c(Cl)ccc2c(=O)c3ccc(C)cc3n(CC(=O)OC)c12 [Compound 322] | B (“B” = 0-2° C.)
COc1c(Cl)ccc2c(=O)c3ccc(C)cc3n(CC(=O)O)c12 [Compound 280] | D (“D” > 7° C.)
CC(C)Sc1ccc2c(=O)c3ccc(Cl)c(Cl)c3n(CC(=O)O)c2c1 [Compound 149] | C (“C” = 2-7° C,)
O=C(O)Cn1c2cc(C3=CCC(O)CC3)ccc2c(=O)c2ccc(Cl)c(Cl)c21 (stereo not shown) [Compound 213] | C (“C” = 2-7° C,)
O=C(O)Cn1c2cc(N3CCCCC3)ccc2c(=O)c2ccc(Cl)c(Br)c21 [Compound 198] | C (“C” = 2-7° C,)
O=C(O)Cn1c2ccccc2c(=O)c2ccc(Cl)c(Oc3nccc4ccccc34)c21 [Compound 243] | A (“A” < 0° C.)

Now from value to compound:

WT_DSF_hSWAT Tm Shift (° C.) | Structure (SMILES)
C (“C” = 2-7° C,) | C=CCOc1c(Cl)ccc2c(=O)c3ccccc3n(CC(=O)O)c12 [Compound 273]
B (“B” = 0-2° C.) | COc1cc(Cl)c(OC)c2c1c(=O)c1ccccc1n2CC(=O)O [Compound 313]
A (“A” < 0° C.) | COc1c(Cl)ccc2c(=O)c3cc(N(C)C)c(C(C)C)cc3n(CC(=O)O)c12 [Compound 319]
D (“D” > 7° C.) | CSc1c(Cl)ccc2c(=O)c3ccc(-c4ccc(O)cc4)cc3n(CC(=O)O)c12 [Compound 271]
A (“A” < 0° C.) | C[C@H](O)COc1c(Cl)ccc2c(=O)c3ccccc3n(CC(=O)O)c12 [Compound 302]
D (“D” > 7° C.) | CSc1c(Cl)ccc2c(=O)c3ccc(Nc4ncccn4)cc3n(CC(=O)O)c12 [Compound 276]
C (“C” = 2-7° C,) | CCCCCCOc1c(Cl)ccc2c(=O)c3ccccc3n(CC(=O)O)c12 [Compound 303]
C (“C” = 2-7° C,) | O=C(O)Cn1c2ccccc2c(=O)c2ccc(Cl)c(-c3ccccc3)c21 [Compound 256]
C (“C” = 2-7° C,) | O=C(O)Cn1c2cc(N3CCCC3)ccc2c(=O)c2ccc(Cl)c(Br)c21 [Compound 201]

What follows are compounds tested against STING protein (Homo sapiens (Human), UniProt Q86WV6, H232R) (assay: Cell based reporter assay of IRF activation (IRF-luciferase), THP1-dual-KI R232). Settings: read-out: THP1-dual-KI R232_IRF(Luciferase)_Activity Maximum measured (%).
Chain of STING protein (Q86WV6 whole entry H232R): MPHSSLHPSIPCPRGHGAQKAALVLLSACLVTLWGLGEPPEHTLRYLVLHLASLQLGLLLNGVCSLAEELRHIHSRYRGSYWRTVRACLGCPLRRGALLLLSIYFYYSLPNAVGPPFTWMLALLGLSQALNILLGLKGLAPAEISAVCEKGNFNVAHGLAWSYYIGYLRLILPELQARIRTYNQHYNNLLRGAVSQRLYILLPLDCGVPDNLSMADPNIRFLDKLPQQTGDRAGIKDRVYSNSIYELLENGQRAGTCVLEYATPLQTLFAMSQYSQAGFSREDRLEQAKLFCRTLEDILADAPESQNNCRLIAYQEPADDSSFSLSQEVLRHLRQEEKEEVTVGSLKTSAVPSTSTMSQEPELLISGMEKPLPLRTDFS
Text: Briefly, THP-1 monocytes were transfected and selected for stable integration of 2 reporter constructs. Clones incorporating stably integrated vectors were further selected by antibiotic resistance to blastocidin and zeocin. The reporter constructs included: (1) firefly luciferase reporter gene under the control of an ISG54 promoter fused to five interferon (IFN)-stimulated response elements to measure IRF transcription factor binding activity and (2) secreted embryonic alkaline phosphatase reporter gene under transcription control of an IFN-beta minimal promoter fused to 5 copies of the NFkB consensus transcriptional response element and 3 copies of the c-Rel binding site.
The resulting THP-1 cell line was further modified to incorporate 3 amino acid point mutations (H71R A230G Q293R). This modification of the native TMEM173 gene in THP-1 cells (HAQ) was designed to produce a cell reporter that expressed the most common allelic variant in the human population (THP-1 R232, available from InvivoGen). Alternatively, the TMEM173 gene was knocked out to provide a congenic control to counter-screen for compound activation that was independent of the STING protein (THP-1 STING KO).
Once cell lines were established, reporter assay protocols were developed and optimized to screen small molecule compounds for agonist activity. Assay optimization for efficacy and Z′ value included titration of the following parameters:
• 1. Cell pre-activation with PMA • 2. Cell seeding density • 3. DMSO tolerance • 4. Media selection • 5. FBS concentration • 6. Incubation time • 7. Co-Assessment of cell viability by CTG assay • 8. Appropriate HPE and ZPE controls • 9. Dose Response Titration Final Assay SOP Conditions • 1. No pre-activation with PMA • 2. 5×10^4 cells/well in 96 well plate format • 3. <0.5% DMSO • 4. […] 10% FBS • 6. 14-18 hr incubation • 7. Cell Titer Glo reagent (Promega) following supernatant removal • 8.

Structure (SMILES) | Emax [%]
O=C(O)Cn1c2cc(-c3ccoc3)ccc2c(=O)c2ccc(Cl)c(Cl)c21 [Compound 183] | 25 to 50
COc1c(Cl)ccc2c(=O)c3ccc(-c4cccc(N)c4)cc3n(CC(=O)O)c12 [Compound 275] | > 50
CSc1c(Cl)ccc2c(=O)c3ccc(C(C)C)cc3n(CC(=O)O)c12 [Compound 281] | > 50
CSc1c(Cl)ccc2c(=O)c3ccc(C)cc3n(CC(=O)O)c12 [Compound 279] | > 50
CCOC(=O)Cn1c2cc(C)ccc2c(=O)c2ccc(Cl)c(OCC)c21 [Compound 321] | 5 to 25
COc1c(Cl)ccc2c(=O)c3ccc(Nc4ccccc4OC(F)(F)F)cc3n(CC(=O)O)c12 [Compound 286] | > 50
C#CCOc1c(Cl)ccc2c(=O)c3ccccc3n(CC(=O)O)c12 [Compound 272] | < 5
CCOc1c(Cl)ccc2c(=O)c3ccc(C)cc3n(CC(=O)OC)c12 [Compound 322] | 5 to 25
COc1c(Cl)ccc2c(=O)c3ccc(C)cc3n(CC(=O)O)c12 [Compound 280] | > 50
CC(C)Sc1ccc2c(=O)c3ccc(Cl)c(Cl)c3n(CC(=O)O)c2c1 [Compound 149] | < 5
O=C(O)Cn1c2ccccc2c(=O)c2ccc(Cl)c(Oc3nccc4ccccc34)c21 [Compound 243] | < 5

Second part, the compound after the results:

Emax [%] | Structure (SMILES)
> 50 | C=CCOc1c(Cl)ccc2c(=O)c3ccccc3n(CC(=O)O)c12 [Compound 273]
< 5 | COc1cc(Cl)c(OC)c2c1c(=O)c1ccccc1n2CC(=O)O [Compound 313]
< 5 | COc1c(Cl)ccc2c(=O)c3cc(N(C)C)c(C(C)C)cc3n(CC(=O)O)c12 [Compound 319]
> 50 | CSc1c(Cl)ccc2c(=O)c3ccc(-c4ccc(O)cc4)cc3n(CC(=O)O)c12 [Compound 271]
< 5 | C[C@H](O)COc1c(Cl)ccc2c(=O)c3ccccc3n(CC(=O)O)c12 [Compound 302]
> 50 | CSc1c(Cl)ccc2c(=O)c3ccc(Nc4ncccn4)cc3n(CC(=O)O)c12 [Compound 276]
5 to 25 | CCCCCCOc1c(Cl)ccc2c(=O)c3ccccc3n(CC(=O)O)c12 [Compound 303]
5 to 25 | O=C(O)Cn1c2cc(N3CCCC3)ccc2c(=O)c2ccc(Cl)c(Br)c21 [Compound 201]

Each compound was assayed against hSTING-WT (Homo sapiens (Human), UniProt Q86WV6, H232R) (assay: Radiometric filtration binding competition assay, hSTING-WT). Settings: not given.
Chain of hSTING-WT (Q86WV6 140-379 H232R): as the sequence (Q86WV6 140-379 H232R) above

Structure (SMILES) | IC50 [µM]
O=C(O)Cn1c2cc(-c3ccoc3)ccc2c(=O)c2ccc(Cl)c(Cl)c21 [Compound 183] | 20 to 100
COc1c(Cl)ccc2c(=O)c3ccc(-c4cccc(N)c4)cc3n(CC(=O)O)c12 [Compound 275] | 20 to 100
CSc1c(Cl)ccc2c(=O)c3ccc(C(C)C)cc3n(CC(=O)O)c12 [Compound 281] | < 20
CSc1c(Cl)ccc2c(=O)c3ccc(C)cc3n(CC(=O)O)c12 [Compound 279] | 20 to 100
Cc1c(C(C)C)ccc2c(=O)c3ccc(Cl)c(Cl)c3n(CC(=O)O)c12 [Compound 193] | 20 to 100
CCOC(=O)Cn1c2cc(C)ccc2c(=O)c2ccc(Cl)c(OCC)c21 [Compound 321] | > 300
COc1c(Cl)ccc2c(=O)c3ccc(Nc4ccccc4OC(F)(F)F)cc3n(CC(=O)O)c12 [Compound 286] | < 20
C#CCOc1c(Cl)ccc2c(=O)c3ccccc3n(CC(=O)O)c12 [Compound 272] | 100 to 300
CCOc1c(Cl)ccc2c(=O)c3ccc(C)cc3n(CC(=O)OC)c12 [Compound 322] | > 300
COc1c(Cl)ccc2c(=O)c3ccc(C)cc3n(CC(=O)O)c12 [Compound 280] | 20 to 100
CC(C)Sc1ccc2c(=O)c3ccc(Cl)c(Cl)c3n(CC(=O)O)c2c1 [Compound 149] | 100 to 300
O=C(O)Cn1c2cc(C3=CCC(O)CC3)ccc2c(=O)c2ccc(Cl)c(Cl)c21 (stereo not shown) [Compound 213] | 100 to 300
O=C(O)Cn1c2cc(N3CCCCC3)ccc2c(=O)c2ccc(Cl)c(Br)c21 [Compound 198] | 100 to 300
O=C(O)Cn1c2ccccc2c(=O)c2ccc(Cl)c(Oc3nccc4ccccc34)c21 [Compound 243] | 20 to 100

Results, then the compound that gave them:

IC50 [µM] | Structure (SMILES)
20 to 100 | C=CCOc1c(Cl)ccc2c(=O)c3ccccc3n(CC(=O)O)c12 [Compound 273]
> 300 | COc1cc(Cl)c(OC)c2c1c(=O)c1ccccc1n2CC(=O)O [Compound 313]
> 300 | COc1c(Cl)ccc2c(=O)c3cc(N(C)C)c(C(C)C)cc3n(CC(=O)O)c12 [Compound 319]
< 20 | CSc1c(Cl)ccc2c(=O)c3ccc(-c4ccc(O)cc4)cc3n(CC(=O)O)c12 [Compound 271]
> 300 | C[C@H](O)COc1c(Cl)ccc2c(=O)c3ccccc3n(CC(=O)O)c12 [Compound 302]
< 20 | CSc1c(Cl)ccc2c(=O)c3ccc(Nc4ncccn4)cc3n(CC(=O)O)c12 [Compound 276]
20 to 100 | CCCCCCOc1c(Cl)ccc2c(=O)c3ccccc3n(CC(=O)O)c12 [Compound 303]
100 to 300 | O=C(O)Cn1c2ccccc2c(=O)c2ccc(Cl)c(-c3ccccc3)c21 [Compound 256]
100 to 300 | O=C(O)Cn1c2cc(N3CCCC3)ccc2c(=O)c2ccc(Cl)c(Br)c21 [Compound 201]

The compounds below were run against mSTING (Mus musculus, UniProt Q3TBT3) (assay: Radiometric filtration binding competition assay, mSTING). Settings: not given.

Structure (SMILES) | IC50 [µM]
O=C(O)Cn1c2cc(-c3ccoc3)ccc2c(=O)c2ccc(Cl)c(Cl)c21 [Compound 183] | 20 to 100
COc1c(Cl)ccc2c(=O)c3ccc(-c4cccc(N)c4)cc3n(CC(=O)O)c12 [Compound 275] | < 20
CSc1c(Cl)ccc2c(=O)c3ccc(C(C)C)cc3n(CC(=O)O)c12 [Compound 281] | < 20
CSc1c(Cl)ccc2c(=O)c3ccc(C)cc3n(CC(=O)O)c12 [Compound 279] | 20 to 100
Cc1c(C(C)C)ccc2c(=O)c3ccc(Cl)c(Cl)c3n(CC(=O)O)c12 [Compound 193] | > 300
CCOC(=O)Cn1c2cc(C)ccc2c(=O)c2ccc(Cl)c(OCC)c21 [Compound 321] | > 300
COc1c(Cl)ccc2c(=O)c3ccc(Nc4ccccc4OC(F)(F)F)cc3n(CC(=O)O)c12 [Compound 286] | < 20
C#CCOc1c(Cl)ccc2c(=O)c3ccccc3n(CC(=O)O)c12 [Compound 272] | > 300
CCOc1c(Cl)ccc2c(=O)c3ccc(C)cc3n(CC(=O)OC)c12 [Compound 322] | > 300
O=C(O)Cn1c2cc(C3=CCC(O)CC3)ccc2c(=O)c2ccc(Cl)c(Cl)c21 (stereo not shown) [Compound 213] | 20 to 100
O=C(O)Cn1c2cc(N3CCCCC3)ccc2c(=O)c2ccc(Cl)c(Br)c21 [Compound 198] | 100 to 300
O=C(O)Cn1c2ccccc2c(=O)c2ccc(Cl)c(Oc3nccc4ccccc34)c21 [Compound 243] | 100 to 300

Now from value to compound:

IC50 [µM] | Structure (SMILES)
20 to 100 | C=CCOc1c(Cl)ccc2c(=O)c3ccccc3n(CC(=O)O)c12 [Compound 273]
> 300 | COc1cc(Cl)c(OC)c2c1c(=O)c1ccccc1n2CC(=O)O [Compound 313]
> 300 | COc1c(Cl)ccc2c(=O)c3cc(N(C)C)c(C(C)C)cc3n(CC(=O)O)c12 [Compound 319]
< 20 | CSc1c(Cl)ccc2c(=O)c3ccc(-c4ccc(O)cc4)cc3n(CC(=O)O)c12 [Compound 271]
> 300 | C[C@H](O)COc1c(Cl)ccc2c(=O)c3ccccc3n(CC(=O)O)c12 [Compound 302]
< 20 | CSc1c(Cl)ccc2c(=O)c3ccc(Nc4ncccn4)cc3n(CC(=O)O)c12 [Compound 276]
100 to 300 | CCCCCCOc1c(Cl)ccc2c(=O)c3ccccc3n(CC(=O)O)c12 [Compound 303]
20 to 100 | O=C(O)Cn1c2ccccc2c(=O)c2ccc(Cl)c(-c3ccccc3)c21 [Compound 256]
